From US9867809B2, “Encapsulated active ingredients for controlled enteric release” (Kemin Industries, Inc., priority 2015, dated 2018)

What was measured:
[1] = system: male Cobb×Cobb 500 broiler chickens; assay: Performance trial in broiler chickens; assay type: in vivo, chicken
From the text: A chicken, broiler performance trial was completed to understand if granules with different in-vitro dissolution rates would perform differently in an animal model. […] Therefore two different granules were made, one with a fast dissolution, and one with a slow dissolution. […] The experiment used 72 cages of 10 male Cobb×Cobb 500 broiler chickens. The treatments were replicated in eighteen blocks where the four treatments were randomized within each block. All the treatments contained equal amount of zinc and treatments B, C and D had same amount of butyric acid. The diet given in Tables 5 and 6 was supplemented with the treatments in Table 4. The starter diet was fed day 0 to 14 and the grower diet was fed day 14 to 28. All diets were fed as non-pelleted mash feed. Bird weights and feed consumption by cage were recorded on Days 0, 14, 21, 28.

[2] = Butyric acid in intestinal contents and excreta of broilers by gas chromatography; assay type: in vivo, chicken; conditions: day 28, birds fed the supplemented diet
Experimental: On days 14 and 28, after weighing, 4 birds per cage were harvested. From each of the harvested birds, a 1 inch section from the beginning of the ileum was cut off and flash frozen. The remaining intestinal tract was cut into 3 sections (upper, middle and cecal), the intestinal contents for each section were pooled by cage, and frozen in liquid nitrogen. A sample of excreta was collected by cage and frozen.
The samples of the feed and intestinal contents were analyzed for butyric acid by gas chromatography.

[3] = after 28 days, supplement in basal diet, 153 ppm zinc

SMILES	Avg. Wt. [1, 3]	Feed Conversion [1, 3]	Feed Intake [1, 3]	butyric acid in the ileal contents [2]	Avg. Wt. ([1]; in vivo)	Feed Conversion ([1]; in vivo)	Feed Intake ([1]; in vivo)
CCCC(=O)[O-].CCCC(=O)[O-].[Zn+2] [ZBA Powder, zinc salt of butyric acid in a molar ratio of 1:2]	1.043 kg	1.589	11.06	no detectible butyric acid	–	–	–
O=S(=O)([O-])[O-].[Zn+2] [Zinc Sulfate Powder, Zinc Sulfate, reference compound]	–	–	–	–	1.010 kg	1.620	10.93
